Experimental data as given in patent EP4745137A1 (Gluetacs Therapeutics (Shanghai) Co., Ltd., priority 2023, dated 2025).

Tests used:
Type in all cases: cell-based
Details in all cases: 24 hours of compound treatment
CK1α = molecular target: T1, CK1α (Homo sapiens, UniProt P48729+Q96SW2); experiment: Western-blot assay of substrate protein degradation in hPBMCs, CK1α
T1 construct: endogenous in cells; host or cells: hPBMCs (Milecell Biotechnologies)
Description: (§1) After 24 hours of compounds treatment, cells were harvested and lysed in RIPA protein lysate containing protease inhibitors on ice for 30 min, followed by centrifugation. The supernatant was aspirated as the extracted total cell protein. The protein concentration of the supernatant was determined using the conventional BCA (Bicinchoninic Acid) assay. • (2) To the collected supernatant, 5X SDS sample loading buffer was added, followed by denaturation at 95°C for 5 minutes. The denatured samples were then separated by SDS-PAGE electrophoresis on a polyacrylamide gel, transferred onto a nitrocellulose membrane (0.45 µm NC membrane), blocked with blocking buffer at room temperature for 1 hour, and subjected to antibody incubation and development procedures according to the antibody manufacturer's instructions (Cell Signaling Technology Company). […]
(§2) Target protein remaining (%) refers to the percentage of target protein remaining in cells after treatment with protein degrader compounds.
(§3) Calculation method for target protein remaining (%): Use ImageJ software to measure grayscale values of Western blot bands from drug (protein degrader)-treated samples. The grayscale value of drug-treated bands is divided by that of internal control protein bands, and the resulting quotient is normalized to obtain the relative percentage of remaining target protein after protein degrader treatment. Target protein degradation rate(%) = 1−target protein remaining(%). [formula]

IKZF1 = molecular target: T2, IKZF1 (Homo sapiens, UniProt Q13422+Q96SW2); experiment: Western-blot assay of substrate protein degradation in hPBMCs, IKZF1
T2 construct: endogenous in cells; host or cells: hPBMCs (Milecell Biotechnologies)
Description: as §1, §2, §3

IKZF3 = molecular target: T3, IKZF3 (Homo sapiens, UniProt Q96SW2+Q9UKT9); experiment: Western-blot assay of substrate protein degradation in hPBMCs, IKZF3
T3 construct: endogenous in cells; host or cells: hPBMCs (Milecell Biotechnologies)
T3 sequence (Q9UKT9 whole entry): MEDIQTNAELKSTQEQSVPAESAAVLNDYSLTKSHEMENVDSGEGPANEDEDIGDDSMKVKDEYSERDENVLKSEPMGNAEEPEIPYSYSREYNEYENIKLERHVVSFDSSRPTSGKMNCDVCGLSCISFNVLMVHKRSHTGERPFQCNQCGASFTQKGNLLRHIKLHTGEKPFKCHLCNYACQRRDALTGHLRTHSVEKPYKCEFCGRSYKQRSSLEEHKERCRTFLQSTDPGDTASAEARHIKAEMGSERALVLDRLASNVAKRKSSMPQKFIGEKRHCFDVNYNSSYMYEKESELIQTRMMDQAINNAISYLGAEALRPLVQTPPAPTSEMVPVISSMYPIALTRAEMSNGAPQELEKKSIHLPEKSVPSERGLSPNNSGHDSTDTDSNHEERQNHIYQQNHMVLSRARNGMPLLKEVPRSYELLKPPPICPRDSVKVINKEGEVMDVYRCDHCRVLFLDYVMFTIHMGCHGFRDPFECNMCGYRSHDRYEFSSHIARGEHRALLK
T3 sequence (Q96SW2 whole entry): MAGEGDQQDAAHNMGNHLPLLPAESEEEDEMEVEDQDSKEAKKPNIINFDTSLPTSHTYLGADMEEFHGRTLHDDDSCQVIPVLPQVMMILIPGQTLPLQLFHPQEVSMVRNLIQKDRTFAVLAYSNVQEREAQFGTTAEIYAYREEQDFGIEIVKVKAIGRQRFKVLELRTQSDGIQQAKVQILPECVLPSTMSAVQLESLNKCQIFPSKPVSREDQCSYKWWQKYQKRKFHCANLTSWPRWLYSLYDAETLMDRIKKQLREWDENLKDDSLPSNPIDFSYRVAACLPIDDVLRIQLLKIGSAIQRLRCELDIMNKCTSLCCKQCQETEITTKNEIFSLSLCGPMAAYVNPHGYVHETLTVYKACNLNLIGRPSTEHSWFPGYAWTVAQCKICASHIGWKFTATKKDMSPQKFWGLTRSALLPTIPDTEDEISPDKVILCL
T3 sequence (Q16531 whole entry partner): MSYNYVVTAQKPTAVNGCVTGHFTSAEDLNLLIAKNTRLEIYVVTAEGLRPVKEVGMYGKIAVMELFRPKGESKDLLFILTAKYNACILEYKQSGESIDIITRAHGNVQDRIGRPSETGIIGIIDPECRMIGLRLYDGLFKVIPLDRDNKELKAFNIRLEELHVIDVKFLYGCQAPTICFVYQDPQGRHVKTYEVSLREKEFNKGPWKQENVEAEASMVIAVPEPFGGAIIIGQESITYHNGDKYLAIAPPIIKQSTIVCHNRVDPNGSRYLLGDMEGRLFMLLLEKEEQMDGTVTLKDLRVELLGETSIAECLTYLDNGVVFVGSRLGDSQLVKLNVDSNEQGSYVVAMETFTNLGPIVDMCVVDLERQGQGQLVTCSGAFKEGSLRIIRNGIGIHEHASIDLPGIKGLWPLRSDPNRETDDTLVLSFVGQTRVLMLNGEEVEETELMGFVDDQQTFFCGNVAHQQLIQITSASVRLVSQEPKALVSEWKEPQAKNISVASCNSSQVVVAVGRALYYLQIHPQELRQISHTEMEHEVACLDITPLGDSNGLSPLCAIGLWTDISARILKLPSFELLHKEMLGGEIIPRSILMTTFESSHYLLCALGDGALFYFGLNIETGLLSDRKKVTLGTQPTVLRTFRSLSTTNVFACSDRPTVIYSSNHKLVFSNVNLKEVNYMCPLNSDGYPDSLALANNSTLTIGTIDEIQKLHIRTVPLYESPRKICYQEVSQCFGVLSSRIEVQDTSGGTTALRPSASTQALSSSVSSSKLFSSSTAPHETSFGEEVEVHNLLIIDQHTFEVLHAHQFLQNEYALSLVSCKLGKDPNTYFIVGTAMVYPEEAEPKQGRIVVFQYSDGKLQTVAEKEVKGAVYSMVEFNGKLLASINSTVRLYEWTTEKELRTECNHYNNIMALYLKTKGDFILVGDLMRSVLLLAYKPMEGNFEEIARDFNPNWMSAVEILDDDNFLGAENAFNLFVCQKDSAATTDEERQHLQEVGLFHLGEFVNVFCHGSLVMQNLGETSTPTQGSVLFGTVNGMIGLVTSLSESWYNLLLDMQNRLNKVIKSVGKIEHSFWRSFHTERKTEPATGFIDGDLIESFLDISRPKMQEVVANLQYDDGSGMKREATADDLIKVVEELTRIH
Description: as §1, §2, §3

WEE1 = molecular target: T4, WEE1 (Homo sapiens, UniProt P30291+Q96SW2); experiment: Western-blot assay of substrate protein degradation in hPBMCs, WEE1
T4 construct: endogenous in cells; host or cells: hPBMCs (Milecell Biotechnologies)
T4 sequence (P30291 whole entry): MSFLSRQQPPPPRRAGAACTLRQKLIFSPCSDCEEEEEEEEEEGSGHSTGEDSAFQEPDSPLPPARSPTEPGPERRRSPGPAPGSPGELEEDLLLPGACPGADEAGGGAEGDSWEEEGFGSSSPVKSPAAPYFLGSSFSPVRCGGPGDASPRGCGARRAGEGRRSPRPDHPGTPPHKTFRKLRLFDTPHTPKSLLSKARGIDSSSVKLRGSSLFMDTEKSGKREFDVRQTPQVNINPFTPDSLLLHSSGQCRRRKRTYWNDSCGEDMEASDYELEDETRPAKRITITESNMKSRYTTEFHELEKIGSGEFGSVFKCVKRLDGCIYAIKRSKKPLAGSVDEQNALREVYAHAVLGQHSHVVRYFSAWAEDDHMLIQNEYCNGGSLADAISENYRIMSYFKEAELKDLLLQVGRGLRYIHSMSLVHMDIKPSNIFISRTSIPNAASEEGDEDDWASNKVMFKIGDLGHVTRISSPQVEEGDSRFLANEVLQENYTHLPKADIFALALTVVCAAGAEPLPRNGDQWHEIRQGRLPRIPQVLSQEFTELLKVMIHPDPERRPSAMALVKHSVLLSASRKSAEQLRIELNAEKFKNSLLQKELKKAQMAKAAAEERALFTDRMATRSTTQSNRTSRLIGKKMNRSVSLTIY
T4 sequence (Q96SW2 whole entry): as the sequence (Q96SW2 whole entry) above
T4 sequence (Q16531 whole entry partner): as the sequence (Q16531 whole entry partner) above
Description: as §1, §2, §3

IKZF2 = molecular target: T5, IKZF2 (Homo sapiens, UniProt Q96SW2+Q9UKS7); experiment: Western-blot assay of substrate protein degradation in hPBMCs, IKZF2
T5 construct: endogenous in cells; host or cells: hPBMCs (Milecell Biotechnologies)
T5 sequence (Q9UKS7 whole entry): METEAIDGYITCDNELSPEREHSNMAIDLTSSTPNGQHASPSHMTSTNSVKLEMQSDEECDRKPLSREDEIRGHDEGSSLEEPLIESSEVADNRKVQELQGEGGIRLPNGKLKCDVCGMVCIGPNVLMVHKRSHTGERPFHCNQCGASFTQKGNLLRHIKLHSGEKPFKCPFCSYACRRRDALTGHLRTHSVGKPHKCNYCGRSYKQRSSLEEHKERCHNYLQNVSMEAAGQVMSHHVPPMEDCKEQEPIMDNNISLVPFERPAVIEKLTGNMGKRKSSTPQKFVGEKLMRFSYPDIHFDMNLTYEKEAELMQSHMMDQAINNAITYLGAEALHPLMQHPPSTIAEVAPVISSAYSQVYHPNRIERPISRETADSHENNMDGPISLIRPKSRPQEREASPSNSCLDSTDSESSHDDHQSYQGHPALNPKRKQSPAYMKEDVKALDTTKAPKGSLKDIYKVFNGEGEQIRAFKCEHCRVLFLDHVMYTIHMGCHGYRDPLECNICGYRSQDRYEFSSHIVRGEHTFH
T5 sequence (Q96SW2 whole entry): as the sequence (Q96SW2 whole entry) above
T5 sequence (Q16531 whole entry partner): as the sequence (Q16531 whole entry partner) above
Description: as §1, §2, §3

GSPT1 = molecular target: T6, GSPT1 (Homo sapiens, UniProt P15170+Q96SW2); experiment: Western-blot assay of substrate protein degradation in hPBMCs, GSPT1
T6 construct: endogenous in cells; host or cells: hPBMCs (Milecell Biotechnologies)
T6 sequence (P15170 whole entry): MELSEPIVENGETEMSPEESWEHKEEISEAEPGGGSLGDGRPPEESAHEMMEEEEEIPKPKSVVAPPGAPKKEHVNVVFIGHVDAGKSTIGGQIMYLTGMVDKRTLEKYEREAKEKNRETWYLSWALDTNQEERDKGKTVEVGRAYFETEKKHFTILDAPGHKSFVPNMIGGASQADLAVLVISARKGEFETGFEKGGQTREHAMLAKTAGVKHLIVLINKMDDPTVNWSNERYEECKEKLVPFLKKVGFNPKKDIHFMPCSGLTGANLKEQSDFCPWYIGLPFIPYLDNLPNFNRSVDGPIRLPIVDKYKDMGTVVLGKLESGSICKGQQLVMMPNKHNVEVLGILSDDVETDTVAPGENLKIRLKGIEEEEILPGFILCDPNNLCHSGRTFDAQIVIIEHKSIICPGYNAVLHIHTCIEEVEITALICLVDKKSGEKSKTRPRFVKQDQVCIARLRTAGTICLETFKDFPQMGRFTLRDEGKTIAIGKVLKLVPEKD
T6 sequence (Q96SW2 whole entry): as the sequence (Q96SW2 whole entry) above
T6 sequence (Q16531 whole entry partner): as the sequence (Q16531 whole entry partner) above
Description: as §1, §2, §3

[1] = 50 nM and 500 nM tested (concentration behind the class not stated)
[2] = compounds tested at 50 nM and 500 nM (concentration of the table not stated)

T1 sequence (P48729 whole entry): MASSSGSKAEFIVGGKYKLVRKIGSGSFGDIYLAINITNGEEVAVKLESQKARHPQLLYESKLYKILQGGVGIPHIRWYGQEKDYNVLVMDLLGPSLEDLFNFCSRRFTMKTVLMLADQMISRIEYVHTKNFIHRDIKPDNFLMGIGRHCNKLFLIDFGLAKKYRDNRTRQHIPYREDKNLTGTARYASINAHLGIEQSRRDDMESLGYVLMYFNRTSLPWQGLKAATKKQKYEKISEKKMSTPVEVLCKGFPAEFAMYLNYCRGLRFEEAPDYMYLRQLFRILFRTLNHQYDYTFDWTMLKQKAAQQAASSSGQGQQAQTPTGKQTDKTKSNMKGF
T1 sequence (Q96SW2 whole entry): as the sequence (Q96SW2 whole entry) above
T1 sequence (Q16531 whole entry partner): as the sequence (Q16531 whole entry partner) above

Row | SMILES | CK1a substrate protein remaining % (CK1α; [1]) | IKZF 1 substrate protein remaining % (IKZF1; [1]) | IKZF3 substrate protein remaining % (IKZF3; [1]) | Weel substrate protein remaining % (WEE1; [1]) | IKZF2 substrate protein remaining % (IKZF2; [1]) | GSPT1 substrate protein remaining % (GSPT1; [1]) | CK1a substrate protein remaining % (CK1α; [2]) | IKZF 1 substrate protein remaining % (IKZF1; [2]) | IKZF3 substrate protein remaining % (IKZF3; [2]) | Weel substrate protein remaining % (WEE1; [2]) | IKZF2 substrate protein remaining % (IKZF2; [2]) | GSPT1 substrate protein remaining % (GSPT1; [2])
1 | Cc1cscc1C1=CCN(Cc2ccc3c(c2)C(=O)N(C2CCC(=O)NC2=O)C3=O)CC1 (stereo not drawn) [GT-06221, 2-(2,6-dioxopiperidin-3-yl)-5-((4-(4-methylthiophen-3-yl)-3,6-dihydropyridin-1(2H)-yl)methyl)isoindoline-1,3-dione] | A (0% ≤ substrate protein remaining % ≤ 80%) | A (0% ≤ substrate protein remaining % ≤ 80%) | A (0% ≤ substrate protein remaining % ≤ 80%) | A (0% ≤ substrate protein remaining % ≤ 80%) | A (0% ≤ substrate protein remaining % ≤ 80%) | A (0% ≤ substrate protein remaining % ≤ 80%) |  |  |  |  |  | 
2 | O=C1CCC(N2C(=O)c3ccc(CN4CCC(c5cccs5)CC4)cc3C2=O)C(=O)N1 (stereo not drawn) [GT-06224, 2-(2,6-dioxopiperidin-3-yl)-5-((4-(thiophen-2-yl)piperidin-1-yl)methyl)isoindoline-1,3-dione] | A (0% ≤ substrate protein remaining % ≤ 80%) | A (0% ≤ substrate protein remaining % ≤ 80%) | A (0% ≤ substrate protein remaining % ≤ 80%) | A (0% ≤ substrate protein remaining % ≤ 80%) | B (80%< substrate protein remaining %≤ 100%) | A (0% ≤ substrate protein remaining % ≤ 80%) |  |  |  |  |  | 
3 | O=C1CCC(N2C(=O)c3ccc(CN4CCC(N5CCCc6cc(F)ccc65)CC4)cc3C2=O)C(=O)N1 (stereo not drawn) [GT-06234, 2-(2,6-dioxopiperidin-3-yl)-5-((4-(6-fluoro-3,4-dihydroquinolin-1(2H)-yl)piperidin-1-yl)methyl)isoindoline-1,3-dione] |  |  |  |  |  |  | B (80%< substrate protein remaining %≤ 100%) | B (80%< substrate protein remaining %≤ 100%) | B (80%< substrate protein remaining %≤ 100%) | B (80%< substrate protein remaining %≤ 100%) | B (80%< substrate protein remaining %≤ 100%) | A (0% ≤ substrate protein remaining % ≤ 80%)
4 | O=C1CCC(N2C(=O)c3ccc(CN4CCC(N5CCOc6cc(F)ccc65)CC4)cc3C2=O)C(=O)N1 (stereo not drawn) [GT-06235, 2-(2,6-dioxopiperidin-3-yl)-5-((4-(7-fluoro-2,3-dihydro-4H-benzo[b][1,4]oxazin-4-yl)piperidin-1-yl)methyl)isoindoline-1,3-dione] |  |  |  |  |  |  | B (80%< substrate protein remaining %≤ 100%) | B (80%< substrate protein remaining %≤ 100%) | B (80%< substrate protein remaining %≤ 100%) | B (80%< substrate protein remaining %≤ 100%) | B (80%< substrate protein remaining %≤ 100%) | A (0% ≤ substrate protein remaining % ≤ 80%)
5 | O=C1CCC(N2C(=O)c3ccc(CN4CCC(N5C(=O)COc6cc(F)ccc65)CC4)cc3C2=O)C(=O)N1 (stereo not drawn) [GT-06236, 2-(2,6-dioxopiperidin-3-yl)-5-((4-(7-fluoro-3-oxo-2,3-dihydro-4H-benzo[b][1,4]oxazin-4-yl)piperidin-1-yl)methyl)isoindoline-1,3-dione] |  |  |  |  |  |  | B (80%< substrate protein remaining %≤ 100%) | B (80%< substrate protein remaining %≤ 100%) | B (80%< substrate protein remaining %≤ 100%) | B (80%< substrate protein remaining %≤ 100%) | A (0% ≤ substrate protein remaining % ≤ 80%) | A (0% ≤ substrate protein remaining % ≤ 80%)
6 | O=C1CCC(N2C(=O)c3ccc(CN4CCC(C5CCOc6cc(F)ccc65)CC4)cc3C2=O)C(=O)N1 (stereo not drawn) [GT-06237, 2-(2,6-dioxopiperidin-3-yl)-5-((4-(7-fluorochroman-4-yl)piperidin-1-yl)methyl)isoindoline-1,3-dione] |  |  |  |  |  |  | B (80%< substrate protein remaining %≤ 100%) | B (80%< substrate protein remaining %≤ 100%) | B (80%< substrate protein remaining %≤ 100%) | B (80%< substrate protein remaining %≤ 100%) | B (80%< substrate protein remaining %≤ 100%) | A (0% ≤ substrate protein remaining % ≤ 80%)
7 | Cc1cscc1N1CCN(Cc2ccc3c(c2)C(=O)N(C2CCC(=O)NC2=O)C3=O)CC1 (stereo not drawn) [GT-06260, 2-(2,6-dioxopiperidin-3-yl)-5-((4-(4-methylthiophen-3-yl)piperazin-1-yl)methyl)isoindoline-1,3-dione] | B (80%< substrate protein remaining %≤ 100%) | B (80%< substrate protein remaining %≤ 100%) | B (80%< substrate protein remaining %≤ 100%) | B (80%< substrate protein remaining %≤ 100%) | B (80%< substrate protein remaining %≤ 100%) | A (0% ≤ substrate protein remaining % ≤ 80%) |  |  |  |  |  | 
8 | O=C1CCC(N2C(=O)c3ccc(CN4CC=C(c5ccsc5)CC4)cc3C2=O)C(=O)N1 (stereo not drawn) [GT-06261, 2-(2,6-dioxopiperidin-3-yl)-5-((4-(thiophen-3-yl)-3,6-dihydropyridin-1(2H)-yl)methyl)isoindoline-1,3-dione] | A (0% ≤ substrate protein remaining % ≤ 80%) | A (0% ≤ substrate protein remaining % ≤ 80%) | A (0% ≤ substrate protein remaining % ≤ 80%) | A (0% ≤ substrate protein remaining % ≤ 80%) | A (0% ≤ substrate protein remaining % ≤ 80%) | A (0% ≤ substrate protein remaining % ≤ 80%) |  |  |  |  |  | 
9 | Cc1ccc(C2CCN(Cc3ccc4c(c3)C(=O)N(C3CCC(=O)NC3=O)C4=O)CC2)s1 (stereo not drawn) [GT-06262, 2-(2,6-dioxopiperidin-3-yl)-5-((4-(5-methylthiophen-2-yl)piperidin-1-yl)methyl)isoindoline-1,3-dione] | A (0% ≤ substrate protein remaining % ≤ 80%) | B (80%< substrate protein remaining %≤ 100%) | B (80%< substrate protein remaining %≤ 100%) | B (80%< substrate protein remaining %≤ 100%) | A (0% ≤ substrate protein remaining % ≤ 80%) | A (0% ≤ substrate protein remaining % ≤ 80%) |  |  |  |  |  | 
